According to patent US20130317069A1, “2,4-(SUBSTITUTED AROMATIC)-1,3-OXAZOLINE COMPOUNDS AS A SEED TREATMENT TO CONTROL PESTS” (Dow Agrosciences LLC, priority 2012, published 2013):

Key:
[1] = tested on: Spodoptera exigua (beet armyworm); assay: Insecticidal activity on beet armyworm, treated lepidopteran diet; assay type: in vivo; settings: 120 h, Rate 400 PPM, 250 μL test solution on diet surface, second-instar larvae, 5 days at 25° C., five insects per treatment
Experimental: (§1) Different 2,4-(substituted aromatic)-1,3-oxazoline compounds were tested for insecticidal activity on Spodoptera exigua (beet armyworm) and Myzus persicae (green peach aphid).
The different 2,4-(substituted aromatic)-1,3-oxazoline compounds used on Spodoptera exigua were formulated as test solutions. To prepare the test solutions, the different 2,4-(substituted aromatic)-1,3-oxazoline compounds were formulated at 400 PPM in 7.5 mL of 2:1 acetone:tap water solvent. 250 μL of each test solution was pipetted upon the surface of 8 mL of lepidopteran diet (modified Shorey) contained in each of five one-ounce plastic cups (one cup=1 replication). A second-instar beet armyworm was placed upon the treated diet in each cup once the solvent had air-dried. The cups containing the treated lepidopteran diet and the beet armyworms were capped and then held in a growth chamber at 25° C., 50-55% RH, and 14 hours light:10 hours dark for 5 days. The average % mortality was determined from the number of dead insects of five per treatments.

[2] = tested on: Myzus persicae (green peach aphid); assay: Insecticidal activity on green peach aphid, spray on infested cabbage leaves; assay type: in vivo; settings: 72 h, Rate 50 PPM spray on infested cabbage leaves until runoff, graded after 3 days at 26° C., count compared with untreated check
Experimental: as §1
The different 2,4-(substituted aromatic)-1,3-oxazoline compounds used on Myzus persicae were formulated as test spray solutions. To prepare the test spray solutions, 1 mg of each of the different 2,4-(substituted aromatic)-1,3-oxazoline compounds was dissolved into 1 mL of a 90:10 acetone:ethanol solvent. The resulting solution was added to 19 mL of water containing 0.05% Tween surfactant to produce different 50 PPM spray solutions. Cabbage leaves were […] with green peach aphid (all life stages) 16-20 hours prior to application of the different spray solutions. The different spray solutions were sprayed on both sides of each infested cabbage leaf with a sweeping action until runoff. The cabbage leaves were allowed to dry and were held for 3 days in a controlled room at 26° C. and 40% RH, after which time the test was graded. Grading was by actual count using a dissecting microscope and comparison of test counts to an untreated check. The average % mortality was then determined. In Table 1, “NT” means insecticidal activity was not tested for the 2,4-(substituted aromatic)-1,3-oxazoline compound at this rate.

Row | SMILES | mortality at 400 ppm [1] [%] | mortality at 50 ppm [2] [%]
1 | CCOc1ccc(-c2ccc(C3COC(c4c(Cl)cncc4Cl)=N3)c(C)c2)cc1 (centres unmarked) [(VII)] | 100 | 82
2 | Cc1ccc(-c2ccc([C@@H]3N=C(c4c(F)cccc4F)O[C@H]3C)cc2)cc1C (stereo in doubt) [(IX)] | 60 | 0
3 | Fc1cncc(F)c1C1=NC(c2ccc(-c3ccc(C(F)(F)F)cc3)cc2)CO1 (centres unmarked) [(II)] | 80 | –
4 | Fc1ccc(C(F)(F)F)cc1-c1ccc(C2COC(c3c(Cl)cncc3Cl)=N2)cc1 (centres unmarked) [(V)] | 60 | –
5 | C[C@@H]1OC(c2c(F)cccc2Cl)=N[C@@H]1c1ccc(-c2ccc(OC(F)(F)F)cc2)cc1 (stereo in doubt) [(XII)] | 100 | 86
6 | FC(F)(F)c1ccc(-c2ccc(C3COC(c4c(Cl)cncc4Cl)=N3)cc2)cc1 (centres unmarked) [(XV)] | 100 | 75
7 | Clc1cncc(Cl)c1C1=NC(c2ccc(-c3ccccc3)cc2)CO1 (centres unmarked) [(IV)] | 80 | –
8 | C[C@H]1OC(c2c(F)cccc2F)=N[C@H]1c1ccc(-c2ccc(OC(F)(F)F)cc2)cc1 (stereo in doubt) [(XVI)] | 100 | 95
9 | Cc1ccccc1C1=N[C@@H](c2ccc(-c3ccc(OC(F)(F)F)cc3)cc2)[C@@H](C)O1 (stereo in doubt) [(XI)] | 100 | 71
10 | CCOc1ccc(-c2ccc([C@H]3N=C(c4c(F)cccc4Cl)O[C@H]3C)cc2)cc1 (stereo in doubt) [(XIII)] | 100 | 82
11 | Cc1cc(-c2ccc(C(F)(F)F)cc2)ccc1C1COC(c2c(Cl)cncc2Cl)=N1 (centres unmarked) [(VI)] | 100 | 20
12 | Cc1cc(-c2ccc(OC(F)(F)F)cc2)ccc1C1COC(c2c(F)cccc2Cl)=N1 (centres unmarked) [(VIII)] | 100 | 66
13 | Cc1ccccc1C1=N[C@@H](c2ccc(-c3ccc(C(F)(F)F)cc3)cc2)[C@@H](C)O1 (stereo in doubt) [(X)] | 100 | 88
14 | FC(F)(F)c1ccc(-c2ccc(C3COC(c4c(Cl)cncc4Cl)=N3)cc2)c(Cl)c1 (centres unmarked) [(I)] | 100 | 18
15 | CCOc1ccc(-c2ccc(C3N=C(c4c(F)cccc4F)OC3(C)C)cc2)cc1 (centres unmarked) [(XIV)] | 60 | 40
16 | C[C@@H]1OC(c2c(F)cccc2F)=N[C@@H]1c1ccc(-c2ccc(C(F)(F)F)cc2)cc1 (stereo in doubt) [(III)] | 100 | 32
